Measurements published in patent EP3046573B1, “AMYLIN ANALOGUES” (Zealand Pharma A/S, priority 2013, dated 2015).
Numbered stars: 1 amine (or outer) side, 2 acyl side, 3 side chain; on linkers, the order of the positions; unused ones are H or OH. Bridge positions count the residues as written; N and C are the ends. Square brackets hold non-standard residues; d marks the D form. Peptide text beside a SMILES is read from it. * marks the point of attachment. C20 diacid = O=C(O)CCCCCCCCCCCCCCCCCCC(=O)*; γGlu = O=C(O)[C@H](CCC(=O)[*:2])N[*:1]; NMeI = CC[C@H](C)[C@H](NC)C(=O)O; Sar = CNCC(=O)O

What was measured:
[1] = target: T1, human calcitonin receptor (hCTR2) (Homo sapiens, UniProt P30988); test: hCTR2 assay: induction of cAMP (AlphaScreen cAMP Assay kit) in COS7 cells expressing hCTR2; type: cell-based
T1 construct: expressed in transfected cells
T1 sequence (P30988 25-474): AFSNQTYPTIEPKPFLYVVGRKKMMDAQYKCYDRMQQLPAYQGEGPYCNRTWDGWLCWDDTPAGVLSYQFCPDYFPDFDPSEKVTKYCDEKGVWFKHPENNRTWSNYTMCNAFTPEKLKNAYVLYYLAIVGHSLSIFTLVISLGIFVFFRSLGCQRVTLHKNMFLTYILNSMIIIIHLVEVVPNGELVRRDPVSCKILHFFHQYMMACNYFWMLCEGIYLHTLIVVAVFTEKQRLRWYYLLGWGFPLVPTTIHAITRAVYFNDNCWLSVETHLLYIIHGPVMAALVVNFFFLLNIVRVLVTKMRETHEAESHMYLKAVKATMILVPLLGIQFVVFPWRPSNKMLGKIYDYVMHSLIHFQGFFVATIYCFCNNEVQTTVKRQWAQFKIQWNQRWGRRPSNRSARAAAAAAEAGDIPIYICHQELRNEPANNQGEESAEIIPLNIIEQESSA
In short: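 COS7 stable hCTR2 clone (RAMP-free); peptide dose-response 15 min 37° C in Tyrode pH 7.4 + 100 µM IBMX + 0.1% casein; lysis 10 min RT; AlphaScreen cAMP; 4PL fit.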

[2] = Solubility assessment (turbidity absorbance at 325 nm); type: physicochemical; conditions: stock 2 mg/ml diluted 1:1, ambient temperature (typically 25°C), n=1; for Solubility, Acetate buffer pH 4: 100 mM acetate buffer pH 4.0; for Solubility, Acetate buffer pH 5: 100 mM acetate buffer pH 5.0; for Solubility, Histidine buffer pH 6: 100 mM histidine buffer pH 6.0; for Solubility, Histidine buffer pH 7: 100 mM histidine buffer pH 7.0; for Solubility, Phosphate buffer pH 6: 100 mM phosphate buffer pH 6.0; for Solubility, Phosphate buffer pH 7: 100 mM phosphate buffer pH 7.0; for Solubility, Phosphate buffer pH 7.5: 100 mM phosphate buffer pH7.5
In short: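 Stock 2 mg/ml peptide, H2O/HCl pH 2.5; 1:1 into 100 mM buffers: acetate pH 4.0/5.0, His pH 6.0/7.0, phosphate pH 6.0/7.0/7.5. A280 + A325, ~25°C, n=1. Soluble ≥ 1 mg/ml if A325 ≤ 0.02.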

[3] = Assessment of chemical stability: normalized purity by RP-HPLC after incubation at 40 °C; type: physicochemical; conditions: normalized purity (T=0 set to 100), 0.2 mg/ml; for Chem. stability; 7 days, 40°C pH 4: pH 4, 7 days; for Chem. stability; 7 days, 40°C pH 7.5: pH 7.5, 7 days; for Chem. stability; 7 days, 40°C pH 9: pH 9, 7 days
Protocol: Samples of each test peptide were dissolved in MilliQ™ water, and the pH of the solution was adjusted to pH 4, pH 7.5 or pH 9, respectively, using either HCI or NaOH. The final peptide concentration was 0.2 mg/ml. Samples were placed in glass vials and incubated at 40 °C. The samples were analyzed by RP-HPLC on a C8 column with gradient elution using an ammonium formate/water eluent system, or on a C18 column with gradient elution using a trifluoroacetic acid/water eluent system. The area-percentage (area-%) of the main peak after incubation time T = t (relative to time T = 0) was determined by UV spectroscopy at 220 nm.
The purity was first determined as follows: Purity(area−%) = (area of main peak/total area of all peaks) × 100. [formula]
The purity was then normalized between time points by setting purity at time 0 (T=0) to 100 for each pH value for a given peptide, as follows: Normalised area−%at time t(T = t) = [area−%(T = t)/area−%(T = 0)] × 100. [formula]
The normalized purity values in Table 2 were determined after 7 days of incubation. Table 2. EC50, chemical stability and fibrillation data for compounds of the invention

[4] = system: Zucker diabetic fatty (ZDF) rats; test: Glycemic control in Zucker diabetic fatty rats; type: in vivo, male Zucker diabetic fatty (ZDF) rats; conditions: 40 nmol/kg sc twice daily (bid), P < 0.001
Protocol: (§1) Whole-blood glucose levels were determined on tail-vein blood samples by the Biosen (EKF Diagnostic, Germany) enzyme-based electrode method. Blood samples were analyzed for glycated hemoglobin (HbA1c) using a Cobas c111 analyzer (Roche Diagnostics, Mannheim, Germany). Plasma insulin levels were measured using a Meso Scale Discovery (MSD) system (Rockville, MD, USA). Liver fat content was determined by magnetic resonance (MR) scanning using an Echo systems MR scanner. Fat depots were measured by weighing of excised fat.
84 male Zucker diabetic fatty (ZDF) rats (9-10 weeks of age) were used in this study. The animals were housed in groups of n = 2. Stratification of the animals was based on non-fasting blood glucose (primary), changes in non-fasting blood glucose measured from the arrival of the animals until one week before the initiation of the study (secondary) and body weight (tertiary). The animals were further divided into two "teams" with a pair-fed group (group 2) allocated to team 2. […] The amount of food eaten by the animals treated with Compound 82 (30 nmol/kg, team 1) each day was determined, and the same amount was given to a vehicle-treated pair-fed group of animals the following day. […]
Statistical analyses were performed using GraphPad™ Prism version 5. The measured parameters were compared using one- way ANOVA followed by Dunnett's multiple comparison test. […]

[5] = system: male Zucker diabetic fatty (ZDF) rats; test: Efficacy testing: glycemic control in Zucker diabetic fatty rats; type: in vivo
Protocol: as §1
84 male Zucker diabetic fatty (ZDF) rats (9-10 weeks of age) were used in this study. The animals were housed in groups of n = 2. Stratification of the animals was based on non-fasting blood glucose (primary), changes in non-fasting blood glucose measured from the arrival of the animals until one week before the initiation of the study (secondary) and body weight (tertiary). The animals were further divided into two "teams" with a pair-fed group (group 2) allocated to team 2. Animals from group 2 were pair-fed in order to compare between the contribution made by reduced food intake and by drug-induced effects on glycemic control. The amount of food eaten by the animals treated with Compound 82 (30 nmol/kg, team 1) each day was determined, and the same amount was given to a vehicle-treated pair-fed group of animals the following day.
Rats were treated for 4 weeks with Compound 82 (3, 30 and 100 nmol/kg, sc, every (ev.) 5th day), Compound 18 (30 nmol/kg sc, every 5th day), or the GLP-1 analogue liraglutide (40 nmol/kg sc, twice daily (bid)).
The effects of the compounds on glycemic control were investigated by measurement of non-fasting and fasting blood glucose levels and HbA1c levels.
Statistical analyses were performed using GraphPad™ Prism version 5. The measured parameters were compared using one- way ANOVA followed by Dunnett's multiple comparison test. Comparison between the pair-fed vehicle-treated group and the Compound 82 (30 nmol/kg) group was done using Student's two-tailed and unpaired t-test. Differences were considered statistically significant at p < 0.05.

Compound	EC50 [1]	Solubility, Acetate buffer pH 4 [2]	Solubility, Acetate buffer pH 5 [2]	Solubility, Histidine buffer pH 6 [2]	Solubility, Histidine buffer pH 7 [2]	Solubility, Phosphate buffer pH 6 [2]	Solubility, Phosphate buffer pH 7 [2]	Solubility, Phosphate buffer pH 7.5 [2]	Chem. stability; 7 days, 40°C pH 4 [3]	Chem. stability; 7 days, 40°C pH 7.5 [3]	Chem. stability; 7 days, 40°C pH 9 [3]	blood glucose levels (non-fasting and fasting) [4]	terminal HbA1c levels ([5]; 40 nmol/kg sc twice daily (bid), 4 weeks, vehicle 8.7 ± 0.2)	blood glucose lowering effect ([5]; 40 nmol/kg sc twice daily, P < 0.001)
CC[C@H](C)[C@@H](C(=O)N[C@@H](CC(C)C)C(=O)N[C@@H](CO)C(=O)N[C@@H](CO)C(=O)N[C@H](C(=O)N[C@@H](CC(N)=O)C(=O)N[C@H](C(=O)NCC(=O)N[C@@H](CO)C(=O)N[C@@H](CC(N)=O)C(=O)N[C@H](C(=O)N1CCC[C@H]1C(N)=O)[C@@H](C)O)C(C)C)[C@@H](C)O)N(C)C(=O)[C@H](C)NC(=O)CN(C)C(=O)[C@H](Cc1ccccc1)NC(=O)[C@H](CC(N)=O)NC(=O)[C@H](CC(N)=O)NC(=O)[C@H](CO)NC(=O)[C@@H](CO)NC(=O)[C@H](Cc1c[nH]cn1)NC(=O)[C@H](Cc1c[nH]cn1)NC(=O)[C@H](CC(C)C)NC(=O)[C@H](Cc1ccccc1)NC(=O)[C@H](CCC(=O)O)NC(=O)[C@H](C)NC(=O)[C@H](CC(C)C)NC(=O)[C@H](CCCNC(=N)N)NC(=O)[C@H](CCC(N)=O)NC(=O)[C@@H](NC(=O)[C@H](C)NC(=O)[C@@H]1CSSC[C@H](NC(=O)[C@H](CCCNC(=N)N)NC(=O)CC[C@H](NC(=O)CCCCCCCCCCCCCCCCCCC(=O)O)C(=O)O)C(=O)N[C@@H](CC(N)=O)C(=O)N[C@@H]([C@@H](C)O)C(=O)N[C@@H](C)C(=O)N[C@@H]([C@@H](C)O)C(=O)N1)[C@@H](C)O [Compound 29, [19CD]-isoGlu-RC()NTATC()ATQRLAEFLHH-DSer-SNNF-Gly(Me)-A-Ile(Me)-LSSTNVGSNTP-NH2] ({C20 diacid-γGlu}-RCNTATCATQRLAEFLHH[dS]SNNF[Sar]A[NMeI]LSSTNVGSNTP-NH2; disulfide 2-7)	0.42 nM	SS (SS indicates solubility ≥ 1mg/ml)	SS (SS indicates solubility ≥ 1mg/ml)	SS (SS indicates solubility ≥ 1mg/ml)	SS (SS indicates solubility ≥ 1mg/ml)	SS (SS indicates solubility ≥ 1mg/ml)	SS (SS indicates solubility ≥ 1mg/ml)	SS (SS indicates solubility ≥ 1mg/ml)	100 area-%	69 area-%	53 area-%	–	–	–
CC[C@H](C)[C@@H](C(=O)N[C@@H](CC(C)C)C(=O)N[C@@H](CO)C(=O)N[C@@H](CO)C(=O)N[C@H](C(=O)N[C@@H](CC(N)=O)C(=O)N[C@H](C(=O)NCC(=O)N[C@@H](CO)C(=O)N[C@@H](CC(N)=O)C(=O)N[C@H](C(=O)N1CCC[C@H]1C(N)=O)[C@@H](C)O)C(C)C)[C@@H](C)O)N(C)C(=O)[C@H](C)NC(=O)CN(C)C(=O)[C@H](Cc1ccccc1)NC(=O)[C@H](CC(N)=O)NC(=O)[C@H](CC(N)=O)NC(=O)[C@H](CO)NC(=O)[C@H](CO)NC(=O)[C@H](CCCNC(=N)N)NC(=O)[C@H](Cc1c[nH]cn1)NC(=O)[C@H](CC(C)C)NC(=O)[C@H](Cc1ccccc1)NC(=O)[C@H](CCC(=O)O)NC(=O)[C@H](C)NC(=O)[C@H](CC(C)C)NC(=O)[C@H](CCCNC(=N)N)NC(=O)[C@H](CCC(N)=O)NC(=O)[C@@H](NC(=O)[C@H](C)NC(=O)[C@@H]1CSSC[C@H](NC(=O)[C@H](Cc2c[nH]c3ccccc23)NC(=O)CC[C@H](NC(=O)CCCCCCCCCCCCCCCCCCC(=O)O)C(=O)O)C(=O)N[C@@H](CC(N)=O)C(=O)N[C@@H]([C@@H](C)O)C(=O)N[C@@H](C)C(=O)N[C@@H]([C@@H](C)O)C(=O)N1)[C@@H](C)O [Compound 125, [19CD]-isoGlu-WC()NTATC()ATQRLAEFLHRSSNNF-Gly(Me)-A-Ile(Me)-LSSTNVGSNTP-NH2] ({C20 diacid-γGlu}-WCNTATCATQRLAEFLHRSSNNF[Sar]A[NMeI]LSSTNVGSNTP-NH2; disulfide 2-7)	0.061 nM	SS (SS indicates solubility ≥ 1mg/ml)	SS (SS indicates solubility ≥ 1mg/ml)	SS (SS indicates solubility ≥ 1mg/ml)	SS (SS indicates solubility ≥ 1mg/ml)	II (II indicates solubility ≤ 1 mg/ml)	SS (SS indicates solubility ≥ 1mg/ml)	SS (SS indicates solubility ≥ 1mg/ml)	77 area-%	70 area-%	68 area-%	–	–	–
liraglutide	–	–	–	–	–	–	–	–	–	–	–	significant blood glucose lowering effect	–	–
liraglutide [reference compound]	–	–	–	–	–	–	–	–	–	–	–	–	5.8 ± 0.2%	significant
